From PubChem BioAssay (NCI)
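In this assay, cells in 96-well plates receive the compound at five concentrations for 48 hours. Endpoints are linearly interpolated between the surrounding concentrations. GI50 = concentration required for 50% inhibition of growth. TGI denotes the concentration required for complete inhibition of growth.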

Tests used:
Test in all cases: NCI-60 cell line screen, 48 h
[1] = tested on: ACHN renal
[2] = tested on: HCT-116 colon
[3] = tested on: HL-60(TB) leukemia
[4] = tested on: KM12 colon
[5] = tested on: LOX IMVI melanoma
[6] = tested on: M14 melanoma
[7] = tested on: OVCAR-5 ovarian
[8] = tested on: SF-268 CNS
[9] = tested on: SNB-75 CNS
[10] = tested on: UO-31 renal

Row | SMILES | TGI [1] | TGI [2] | TGI [3] | TGI [4] | TGI [5] | TGI [6] | TGI [7] | TGI [8] | TGI [9] | TGI [10] | GI50 [1] | GI50 [2] | GI50 [3] | GI50 [4] | GI50 [5] | GI50 [6] | GI50 [7] | GI50 [8] | GI50 [9] | GI50 [10]
1 | COc1ccc2[nH]c3c(c2c1)[C@H](C)C[C@@H]1C(=O)N(c2ccccc2)C(=O)[C@H]31 | > 100 µM | 38.8 µM | > 100 µM | 41.9 µM | > 100 µM | > 100 µM | > 100 µM | 63.1 µM | 48.1 µM | > 100 µM |  |  |  |  |  |  |  |  |  | 
2 | CCOC(=O)c1cc2c3c(c(O)c(OC)c2s1)N(C(=O)c1cc2c4c(c(O)c(OC)c2s1)N(C(C)=O)CC4)CC3 | > 100 µM | > 100 µM | > 100 µM | > 100 µM | > 100 µM | > 100 µM | > 100 µM | > 100 µM | 67.1 µM | > 100 µM |  |  |  |  |  |  |  |  |  | 
3 | O=C(N/N=C/c1ccccc1O)c1ccccc1 | 54.2 µM | 5.19 µM | 8.05 µM | > 100 µM | 10.9 µM | 15.3 µM | > 100 µM | > 100 µM | > 100 µM | 11.7 µM | 2.08 µM | 0.309 µM | 2.32 µM | 4.1 µM | 1.47 µM | 1.75 µM | 2.5 µM | 1.07 µM | 3.5 µM | 1.53 µM
4 | O=c1oc2ccccc2[n+]([O-])c1-c1ccccc1 | > 100 µM | > 100 µM | > 100 µM | > 100 µM | > 100 µM | > 100 µM | > 100 µM | > 100 µM | > 100 µM | > 100 µM |  |  |  |  |  |  |  |  |  | 
5 | COC(=O)C1(C)Cc2cc(OC(C)=O)c(OC(C)=O)cc2N1 (stereo not given) | 19.9 µM | 15.5 µM | > 24.2 µM | 51.6 µM | 19.7 µM | 54.4 µM | 47 µM | 52.6 µM | > 96.7 µM | 21.9 µM | 3.42 µM | 3.96 µM | 2.42 µM | 20.2 µM | 5.06 µM | 15.6 µM | 20 µM | 16.1 µM | 26.3 µM | 3.59 µM
6 | CNC(=O)c1nn(C)c2c1C(C)(C)Cc1cnc(Nc3ccc(N4CCN(C)CC4)cc3)nc1-2 | 8.62 µM | > 9.48 µM | > 10 µM | > 10 µM | > 10 µM | > 8.53 µM | > 9.01 µM | > 10 µM | 2.29 µM | 2.39 µM | 0.424 µM | 0.346 µM | 0.695 µM | 0.347 µM | 0.606 µM | 0.248 µM | 0.504 µM | 1.34 µM | 0.304 µM | 0.169 µM
7 | COc1ccc(C(=O)c2ccc([As]=O)cc2)cc1 (stereo not given) | 0.119 µM | 0.154 µM | 0.346 µM | 0.219 µM | 0.075 µM | 0.218 µM | 0.292 µM | 0.136 µM | 0.417 µM | 0.204 µM | 0.0333 µM | 0.0387 µM | 0.106 µM | 0.0801 µM | 0.0237 µM | 0.0629 µM | 0.144 µM | 0.0348 µM | 0.126 µM | 0.0696 µM
8 | O=C1CCCCN1CCCCC#Cc1cccc(C#Cc2cccnc2)c1 | 21.7 µM | 18.4 µM | 70 µM | > 100 µM | 25.9 µM | 34.7 µM | 41.7 µM | > 100 µM | 20.4 µM | 23 µM | 9.64 µM | 4.67 µM | 16.2 µM | 20.4 µM | 8.55 µM | 14.3 µM | 17.7 µM | 27 µM | 4.05 µM | 5.97 µM
9 | Cc1cc(N(CCC#N)CCC#N)ccc1/C=C(\NC(=O)/C=C/c1ccccc1)C(=O)NN | > 100 µM | > 100 µM | > 100 µM | > 100 µM | > 100 µM | > 100 µM | > 100 µM | > 100 µM | > 62.9 µM | > 100 µM |  |  |  |  |  |  |  |  |  | 
10 | C=CC(OCC)(OCC)OCC | > 100 µM | 43.6 µM | > 100 µM | > 100 µM | > 100 µM | > 100 µM | > 100 µM | > 100 µM | > 100 µM | > 100 µM |  |  |  |  |  |  |  |  |  | 
11 | O=C(O)[C@H](c1ccccc1)[C@@H](C(=O)O)c1ccccc1 | > 100 µM | > 100 µM | > 100 µM | > 100 µM | > 100 µM | > 100 µM | > 100 µM | > 100 µM | > 100 µM | > 100 µM |  |  |  |  |  |  |  |  |  | 
12 | CSC(=S)N/N=C/c1nccc2ccccc12 | 12.2 µM | > 100 µM | 6.69 µM | 15.6 µM | 13.1 µM | 4.87 µM | 8.96 µM | 9.65 µM | 14 µM | 9.4 µM |  |  |  |  |  |  |  |  |  | 
13 | Cc1ccccc1C(=O)N1CCN(C(=O)c2ccccc2C)CC1 | > 100 µM | > 100 µM | > 100 µM | > 100 µM | > 100 µM | > 100 µM | > 100 µM | > 100 µM | > 100 µM | > 100 µM |  |  |  |  |  |  |  |  |  | 
14 | Cc1c2ccccc2cc2ccc3oc([N+](=O)[O-])cc3c12 | > 100 µM | > 100 µM | > 100 µM | > 100 µM | > 100 µM | > 100 µM | > 100 µM | > 100 µM | > 100 µM | > 100 µM |  |  |  |  |  |  |  |  |  | 
15 | O=C(Nc1ccc(Cl)c(Cl)c1)NS(=O)(=O)c1cnccc1Oc1ccc(F)cc1 | > 100 µM | 12.3 µM | 7.19 µM | 16.7 µM | 53.1 µM | > 100 µM | 95.2 µM | > 100 µM | > 100 µM | 9.51 µM | 3.22 µM | 3.07 µM | 2.12 µM | 3.75 µM | 3.24 µM | 5.24 µM | 6.28 µM | 4.48 µM | 3.85 µM | 2.62 µM
16 | O=S(=O)(CCCl)c1ccc(Cl)cc1 | 13.1 µM | 11.9 µM | 9.79 µM | 31.4 µM | 5.1 µM | 22.2 µM | 14.2 µM | 10.8 µM | 29.8 µM | 8.16 µM | 3.52 µM | 2.74 µM | 2.36 µM | 12.9 µM | 1.91 µM | 5.18 µM | 3.56 µM | 2.87 µM | 2.4 µM | 2.45 µM
